The test has as its system SKOV3. As to the kind of experiment: Anti-cancer activity against ovarian cancer cells SKOV3 (cell killing in solution / in vitro cell proliferation). Type of test: cell-based. The settings on record: Homo sapiens, SK-OV-3, ovarian cancer cells SKOV3. On the procedure:
Biotinylated LLS2 was synthesized in solution and loaded it onto a streptavidin-coated plate. The biotinylated LLS2 immobilized on the plate killed approximately 21% of SKOV3 ovarian cancer cells at 100 μM loading, 16% at 50 μM and 14% at 25 μM (FIG. 4). The killing effect of the LLS2 compound was also tested in solution. […] In addition, LLS2 can kill pancreatic cancer cell line XPA3, prostate cancer cell line PC3, colon cancer cell line HT29, breast cancer cell line MCF7 and lung cancer cell line A549 (FIG. 4).
With `CC(=O)OCCN(CCOC(C)=O)c1ccc(-c2nc3cc(C(CC(N)=O)NC(=O)[C@@H](N)Cc4ccc(F)c(F)c4)ccc3n2Cc2ccc(OC(F)(F)F)cc2)cc1` (stereo partly drawn) [LLS9, ((4-(5-(3-amino-1-((S)-2-amino-3-(3,4-difluorophenyl)propanamido)-3-oxopropyl)-1-(4-(trifluoromethoxy)benzyl)-1H-benzo[d]imidazol-2-yl)phenyl)azanediyl)bis(ethane-2,1-diyl) Diacetate], the half-inhibitory concentration (IC50) was 17.6 µM.

Regarding `CC(=O)OCCN(CCOC(C)=O)c1ccc(-c2nc3cc(C(CC(N)=O)NCc4ccc(F)c(F)c4)ccc3n2CC23CC4CC(CC(C4)C2)C3)cc1` (centres unmarked) [LLS8, ((4-(1-(((1s,3s)-adamantan-1-yl)methyl)-5-(3-amino-1-((3,4-difluorobenzyl)amino)-3-oxopropyl)-1H-benzo[d]imidazol-2-yl)phenyl)azanediyl)bis(ethane-2,1-diyl) Diacetate], 16.7 µM corresponded to half-maximal inhibition (IC50).

The molecule `CC(=O)OCCN(CCO)c1ccc(-c2nc3cc(C(CC(N)=O)NCc4ccc(Cl)c(Cl)c4)ccc3n2Cc2ccc(Cl)c(Cl)c2)cc1` (centres unmarked) [LLS33, 2-((4-(5-(3-amino-1-((3,4-dichlorobenzyl)amino)-3-oxopropyl)-1-(3,4-dichlorobenzyl)-1H-benzo[d]imidazol-2-yl)phenyl)(2-hydroxyethyl)amino)ethyl Acetate] showed an IC50 of 10 µM.

For `CC(=O)OCCN(CCO)c1ccc(-c2nc3cc(C(CC(N)=O)NCc4ccc(Cl)c(Cl)c4)ccc3n2Cc2ccc(OC(F)(F)F)cc2)cc1` (centres unmarked) [LLS35, 2-((4-(5-(3-amino-1-((3,4-dichlorobenzyl)amino)-3-oxopropyl)-1-(4-(trifluoromethoxy)benzyl)-1H-benzo[d]imidazol-2-yl)phenyl)(2-hydroxyethyl)amino)ethyl Acetate], the IC50 stood at 10.8 µM.

For `CC(=O)OCCN(CCOC(C)=O)c1ccc(-c2nc3cc(C(CC(N)=O)NC(=O)[C@@H](N)Cc4ccc(Cl)c(Cl)c4)ccc3n2Cc2cc(F)ccc2F)cc1` (stereo partly drawn) [LLS10, ((4-(5-(3-amino-1-((S)-2-amino-3-(3,4-dichlorophenyl)propanamido)-3-oxopropyl)-1-(2,5-difluorobenzyl)-1H-benzo[d]imidazol-2-yl)phenyl)azanediyl)bis(ethane-2,1-diyl) Diacetate], the IC50 came out at 36.4 µM.

For `CC(=O)OCCN(CCOC(C)=O)c1ccc(-c2nc3cc(C(CC(N)=O)NC(=O)[C@@H](N)Cc4ccc(Cl)c(Cl)c4)ccc3n2CC23CC4CC(CC(C4)C2)C3)cc1` (stereo partly drawn) [LLS6, ((4-(1-(((1s,3R)-adamantan-1-yl)methyl)-5-(3-amino-1-((S)-2-amino-3-(3,4-dichlorophenyl)propanamido)-3-oxopropyl)-1H-benzo[d]imidazol-2-yl)phenyl)azanediyl)bis(ethane-2,1-diyl) Diacetate], inhibition was half-maximal at 7.8 µM (IC50).

Consider `NC(=O)CC(NCc1ccc(Cl)c(Cl)c1)c1ccc2c(c1)nc(-c1ccc(N(CCO)CCO)cc1)n2Cc1ccc(C(F)(F)F)c(F)c1` (centres unmarked) [LLS27, 3-(2-(4-(bis(2-hydroxyethyl)amino)phenyl)-1-(3-fluoro-4-(trifluoromethyl)benzyl)-1H-benzo[d]imidazol-5-yl)-3-((3,4-dichlorobenzyl)amino)propanamide], for which the IC50 was greater than 50 µM.

Molecule `CC(=O)OCCN(CCO)c1ccc(-c2nc3cc(C(CC(N)=O)NCc4ccc(Cl)c(Cl)c4)ccc3n2CC23CC4CC(CC(C4)C2)C3)cc1` (centres unmarked) [LLS32, 2-((4-(1-(((1s,3s)-adamantan-1-yl)methyl)-5-(3-amino-1-((3,4-dichlorobenzyl)amino)-3-oxopropyl)-1H-benzo[d]imidazol-2-yl)phenyl)(2-hydroxyethyl)amino)ethyl Acetate] had an IC50 of 10.4 µM.

In turn, `NC(=O)CC(NC(=O)[C@@H](N)Cc1ccc(Cl)c(Cl)c1)c1ccc2c(c1)nc(-c1ccc(N(CCO)CCO)cc1)n2Cc1ccc(F)c(F)c1` (stereo partly drawn) [LLS12, (2S)-2-amino-N-(3-amino-1-(2-(4-(bis(2-hydroxyethyl)amino)phenyl)-1-(3,4-difluorobenzyl)-1H-benzo[d]imidazol-5-yl)-3-oxopropyl)-3-(3,4-dichlorophenyl)propanamide] gave an IC50 greater than 50 µM.

The molecule `NC(=O)CC(NCc1ccc(Cl)c(Cl)c1)c1ccc2c(c1)nc(-c1ccc(N(CCO)CCO)cc1)n2Cc1ccc(F)c(Cl)c1` (centres unmarked) [LLS31, 3-(2-(4-(bis(2-hydroxyethyl)amino)phenyl)-1-(3-chloro-4-fluorobenzyl)-1H-benzo[d]imidazol-5-yl)-3-((3,4-dichlorobenzyl)amino)propanamide] displayed an IC50 of 16.4 µM.

`CC(=O)OCCN(CCOC(C)=O)c1ccc(-c2nc3cc(C(CC(N)=O)NCc4ccc(Cl)c(Cl)c4)ccc3n2Cc2ccc(F)c(Cl)c2)cc1` (centres unmarked) [LLS21, ((4-(5-(3-amino-1-((3,4-dichlorobenzyl)amino)-3-oxopropyl)-1-(3-chloro-4-fluorobenzyl)-1H-benzo[d]imidazol-2-yl)phenyl)azanediyl)bis(ethane-2,1-diyl) Diacetate] registered an IC50 of 8.9 µM.

In turn, `CC(=O)OCCN(CCOC(C)=O)c1ccc(-c2nc3cc(C(CC(N)=O)NC(=O)Nc4ccc(Cl)c(Cl)c4)ccc3n2Cc2ccc(F)c(F)c2)cc1` (centres unmarked) [LLS16, ((4-(5-(3-amino-1-(3-(3,4-dichlorophenyl)ureido)-3-oxopropyl)-1-(3,4-difluorobenzyl)-1H-benzo[d]imidazol-2-yl)phenyl)azanediyl)bis(ethane-2,1-diyl) Diacetate] displayed an IC50 of 35.1 µM.

For the molecule `CCCC[C@H](N)C(=O)NC(CC(N)=O)c1ccc2c(c1)nc(-c1nccs1)n2CCN1CCCCC1` (stereo partly drawn) [LLS4, (2S)-2-amino-N-(3-amino-3-oxo-1-(1-(2-(piperidin-1-yl)ethyl)-2-(thiazol-2-yl)-1H-benzo[d]imidazol-5-yl)propyl)hexanamide], the IC50 is greater than 50 µM.

`NC(=O)CC(NCc1c(Cl)cccc1Cl)c1ccc2c(c1)nc(-c1ccc(N(CCO)CCO)cc1)n2Cc1ccc(F)c(F)c1` (centres unmarked) [LLS14, 3-(2-(4-(bis(2-hydroxyethyl)amino)phenyl)-1-(3,4-difluorobenzyl)-1H-benzo[d]imidazol-5-yl)-3-((2,6-dichlorobenzyl)amino)propanamide] had a concentration for half-maximal inhibition (IC50) of 29.2 µM.

In turn, `NC(=O)CC(NCc1ccc(N(CCO)CCO)cc1)c1ccc2c(c1)nc(-c1ccc(N(CCO)CCO)cc1)n2Cc1ccc(Cl)c(Cl)c1` (centres unmarked) [LLS38, 3-((4-(bis(2-hydroxyethyl)amino)benzyl)amino)-3-(2-(4-(bis(2-hydroxyethyl)amino)phenyl)-1-(3,4-dichlorobenzyl)-1H-benzo[d]imidazol-5-yl)propanamide] displayed an IC50 greater than 50 µM.

Regarding `NC(=O)CC(NC(=O)[C@@H](N)Cc1ccc(F)c(F)c1)c1ccc2c(c1)nc(-c1ccc(N(CCO)CCO)cc1)n2Cc1ccc(F)c(F)c1` (stereo partly drawn) [LLS18, (2S)-2-amino-N-(3-amino-1-(2-(4-(bis(2-hydroxyethyl)amino)phenyl)-1-(3,4-difluorobenzyl)-1H-benzo[d]imidazol-5-yl)-3-oxopropyl)-3-(3,4-difluorophenyl)propanamide], the IC50 is greater than 50 µM.

For the molecule `CC(=O)OCCN(CCOC(C)=O)c1ccc(-c2nc3cc(C(CC(N)=O)NCc4ccc(Cl)c(Cl)c4)ccc3n2Cc2ccc(OC(F)(F)F)cc2)cc1` (centres unmarked) [LLS23, ((4-(5-(3-amino-1-((3,4-dichlorobenzyl)amino)-3-oxopropyl)-1-(4-(trifluoromethoxy)benzyl)-1H-benzo[d]imidazol-2-yl)phenyl)azanediyl)bis(ethane-2,1-diyl) Diacetate], the IC50 worked out at 8.4 µM.

For the molecule `NC(=O)CC(c1ccc2c(c1)nc(-c1ccc(N(CCO)CCO)cc1)n2CC12CC3CC(CC(C3)C1)C2)N(Cc1ccc(Cl)c(Cl)c1)Cc1ccc(Cl)c(Cl)c1` (centres unmarked) [LLS29, 3-(1-(((1s,3s)-adamantan-1-yl)methyl)-2-(4-(bis(2-hydroxyethyl)amino)phenyl)-1H-benzo[d]imidazol-5-yl)-3-(bis(3,4-dichlorobenzyl)amino)propanamide], the IC50 came to 25.5 µM.

As for `CC(=O)OCCN(CCOC(C)=O)c1ccc(-c2nc3cc(C(CC(N)=O)NCc4ccc(Cl)c(Cl)c4)ccc3n2CC23CC4CC(CC(C4)C2)C3)cc1` (centres unmarked) [LLS26, ((4-(1-(((1s,3s)-adamantan-1-yl)methyl)-5-(3-amino-1-((3,4-dichlorobenzyl)amino)-3-oxopropyl)-1H-benzo[d]imidazol-2-yl)phenyl)azanediyl)bis(ethane-2,1-diyl) Diacetate], the 50% inhibitory concentration (IC50) was 10.5 µM.

`NC(=O)CC(NCc1ccc(Cl)c(Cl)c1)c1ccc2c(c1)nc(-c1ccc(N(CCO)CCO)cc1)n2Cc1ccc(F)c(F)c1` (centres unmarked) [LLS19, 3-(2-(4-(bis(2-hydroxyethyl)amino)phenyl)-1-(3,4-difluorobenzyl)-1H-benzo[d]imidazol-5-yl)-3-((3,4-dichlorobenzyl)amino)propanamide] had an IC50 of 16.8 µM.

In turn, `CC(=O)OCCN(CCO)c1ccc(-c2nc3cc(C(CC(N)=O)NCc4ccc(Cl)c(Cl)c4)ccc3n2Cc2ccc(F)c(Cl)c2)cc1` (centres unmarked) [LLS34, 2-((4-(5-(3-amino-1-((3,4-dichlorobenzyl)amino)-3-oxopropyl)-1-(3-chloro-4-fluorobenzyl)-1H-benzo[d]imidazol-2-yl)phenyl)(2-hydroxyethyl)amino)ethyl Acetate] gave an IC50 of 8.9 µM.

Regarding `CC(=O)OCCN(CCO)c1ccc(-c2nc3cc(C(CC(N)=O)NC(=O)[C@@H](N)Cc4ccc(Cl)c(Cl)c4)ccc3n2Cc2ccc(F)c(F)c2)cc1` (stereo partly drawn) [LLS5, 2-((4-(5-(3-amino-1-((S)-2-amino-3-(3,4-dichlorophenyl)propanamido)-3-oxopropyl)-1-(3,4-difluorobenzyl)-1H-benzo[d]imidazol-2-yl)phenyl)(2-hydroxyethyl)amino)ethyl Acetate], the IC50 is 18.7 µM.

Take `NC(=O)CC(NCc1ccc(Cl)c(Cl)c1)c1ccc2c(c1)nc(-c1ccc(N3CCOCC3)cc1)n2Cc1ccc(OC(F)(F)F)cc1` (centres unmarked) [LLS24, 3-((3,4-dichlorobenzyl)amino)-3-(2-(4-morpholinophenyl)-1-(4-(trifluoromethoxy)benzyl)-1H-benzo[d]imidazol-5-yl)propanamide]: the IC50 was found to be 40.1 µM.
